Measured values taken from patent US8735414B2 (priority 2009, dated 2014).

How the values were obtained:
[1] = tested on: bicistronic HCV replicon (replicon RNA, GenBank Accession No. AJ242654); experiment: HCV Replicon Assay; format: cell-based; details: Hepatitis C virus, 72 h, read-out: Replicon IC50

Row | Compound | IC50 [1] | melting point
1 | CCc1cc2c(cc1F)c(C#N)c(-c1ccc(S(=O)(=O)NC3(C(F)(F)F)CC3)cn1)n2C1CCCC1 [compound 637, 6-(3-cyano-1-cyclopentyl-6-ethyl-5-fluoro-1H-indol-2-yl)-N-[1-(trifluoromethyl)cyclopropyl]pyridine-3-sulfonamide] | < 500 nM | 198 to 199 °C
2 | CCc1cc2c(cc1F)c(C#N)c(-c1ccc(S(=O)(=O)N[C@@H](C)C(F)(F)F)cn1)n2-c1ccc(F)c(F)c1 [compound 1061, 6-[3-cyano-1-(3,4-difluorophenyl)-6-ethyl-5-fluoro-1H-indol-2-yl]-N-[(2S)-1,1,1-trifluoropropan-2-yl]pyridine-3-sulfonamide] | < 500 nM | 229 to 235 °C
3 | N#Cc1c(-c2ccc(S(=O)(=O)NC(CF)CF)cn2)n(-c2ccc(F)cc2)c2cc(OC(F)F)ccc12 [compound 228, 6-[3-cyano-6-(difluoromethoxy)-1-(4-fluorophenyl)-1H-indol-2-yl]-N-(1,3-difluoropropan-2-yl)pyridine-3-sulfonamide] | < 500 nM | 192 to 198 °C
4 | C[C@H](NS(=O)(=O)c1ccc(-c2c(C#N)c3ccc(C4CC4)cc3n2-c2ccccn2)nc1)C(F)(F)F [compound 502, 6-[3-cyano-6-cyclopropyl-1-(pyridin-2-yl)-1H-indol-2-yl]-N-[(2S)-1,1,1-trifluoropropan-2-yl]pyridine-3-sulfonamide] | < 500 nM | 185 to 189 °C
5 | Cc1cc2c(cc1F)c(C#N)c(-c1ncc(S(=O)(=O)N[C@@H](C)C(F)(F)F)cc1C)n2-c1ncccn1 [compound 888, 6-[3-cyano-5-fluoro-6-methyl-1-(pyrimidin-2-yl)-1H-indol-2-yl]-5-methyl-N-[(2S)-1,1,1-trifluoropropan-2-yl]pyridine-3-sulfonamide] | < 500 nM | 201 to 204 °C
6 | CCc1ccc2c(c1)c(C#N)c(-c1ccc(S(=O)(=O)N[C@@H](C)C(F)(F)F)cn1)n2C1CCCC1 [compound 374, 6-(3-cyano-1-cyclopentyl-5-ethyl-1H-indol-2-yl)-N-[(2S)-1,1,1-trifluoropropan-2-yl]pyridine-3-sulfonamide] | < 500 nM | 159.5 to 160.5 °C
7 | C[C@H](NS(=O)(=O)c1ccc(-c2c(C#N)c3ccc(C(F)(F)F)cc3n2-c2ncccn2)nc1)C(F)(F)F [compound 950, 6-[3-cyano-1-(pyrimidin-2-yl)-6-(trifluoromethyl)-1H-indol-2-yl]-N-[(2S)-1,1,1-trifluoropropan-2-yl]pyridine-3-sulfonamide] | < 500 nM | 206 to 210 °C
8 | COc1ccc2c(C#N)c(-c3ccc(S(=O)(=O)N[C@@H](C)C4CC4)cn3)n(C3CCCC3)c2c1 [compound 432, 6-(3-cyano-1-cyclopentyl-6-methoxy-1H-indol-2-yl)-N-[(1S)-1-cyclopropylethyl]pyridine-3-sulfonamide] | < 500 nM | 199 to 209 °C
9 | Cc1cc2c(cc1F)c(C#N)c(-c1ccc(S(=O)(=O)N[C@@H](C)C(F)(F)F)cn1)n2-c1ccc([N+](=O)[O-])cn1 [compound 744, 6-[3-cyano-5-fluoro-6-methyl-1-(5-nitropyridin-2-yl)-1H-indol-2-yl]-N-[(2S)-1,1,1-trifluoropropan-2-yl]pyridine-3-sulfonamide] | < 500 nM | 260 to 263 °C
10 | Cc1ccc2c(C#N)c(-c3ncc(S(=O)(=O)N[C@@H](C)C(F)(F)F)cn3)n(C3CCCCC3)c2c1 [compound 605, 2-(3-cyano-1-cyclohexyl-6-methyl-1H-indol-2-yl)-N-[(2S)-1,1,1-trifluoropropan-2-yl]pyrimidine-5-sulfonamide] | < 500 nM | 257 to 260 °C
11 | Cc1ccc(-n2c(-c3ncc(S(=O)(=O)NC(C)C)cn3)c(C#N)c3cc(F)ccc32)cc1 [compound 357, 2-[3-cyano-5-fluoro-1-(4-methylphenyl)-1H-indol-2-yl]-N-(propan-2-yl)pyrimidine-5-sulfonamide] | < 500 nM | 200 to 202 °C
12 | N#Cc1c(-c2ncc(S(=O)(=O)NC(CF)CF)cn2)n(C2CCCCC2)c2cc(F)ccc12 [compound 235, 2-(3-cyano-1-cyclohexyl-6-fluoro-1H-indol-2-yl)-N-(1,3-difluoropropan-2-yl)pyrimidine-5-sulfonamide] | < 500 nM | 213 to 218 °C
13 | N#Cc1c(-c2ncc(S(=O)(=O)NC(CF)CF)cn2)n(C2CCC2)c2cc(Cl)c(F)cc12 [compound 149, 2-(6-chloro-3-cyano-1-cyclobutyl-5-fluoro-1H-indol-2-yl)-N-(1,3-difluoropropan-2-yl)pyrimidine-5-sulfonamide] | < 500 nM | > 245 °C (dec.)
14 | CC(C)(NS(=O)(=O)c1ccc(-c2c(C#N)c3cc(F)c(OC(F)F)cc3n2C2CCC2)nc1)C(F)(F)F [compound 676, 6-[3-cyano-1-cyclobutyl-6-(difluoromethoxy)-5-fluoro-1H-indol-2-yl]-N-(1,1,1-trifluoro-2-methylpropan-2-yl)pyridine-3-sulfonamide] | < 500 nM | 162 to 165 °C
15 | Cc1cc2c(cc1F)c(C#N)c(-c1ccc(S(=O)(=O)N[C@@H](C)C(F)(F)F)cn1)n2-c1cccc(F)n1 [compound 815, 6-[3-cyano-5-fluoro-1-(6-fluoropyridin-2-yl)-6-methyl-1H-indol-2-yl]-N-[(2S)-1,1,1-trifluoropropan-2-yl]pyridine-3-sulfonamide] | < 500 nM | 210 to 212 °C
16 | CCc1cc2c(cc1F)c(C#N)c(-c1ccc(S(=O)(=O)NC(C)(C)C)cn1)n2-c1ccccn1 [compound 882, N-tert-butyl-6-[3-cyano-6-ethyl-5-fluoro-1-(pyridin-2-yl)-1H-indol-2-yl]pyridine-3-sulfonamide] | < 500 nM | 200 to 205 °C
17 | C[C@H](NS(=O)(=O)c1ccc(-c2c(C#N)c3cc(F)ccc3n2C2CCC2)nc1)C1CC1 [compound 142, 6-(3-cyano-1-cyclobutyl-5-fluoro-1H-indol-2-yl)-N-[(1S)-1-cyclopropylethyl]pyridine-3-sulfonamide] | < 500 nM | 128 to 130 °C
18 | C[C@H](NS(=O)(=O)c1ccc(-c2c(C(=O)O)c3cc(F)ccc3n2C2CCCCC2)nc1)C(F)(F)F [compound 741, 1-cyclohexyl-5-fluoro-2-(5-{[(2S)-1,1,1-trifluoropropan-2-yl]sulfamoyl}pyridin-2-yl)-1H-indole-3-carboxylic acid] | 500 to 2000 nM | 216 to 220 °C
19 | Cc1cc2c(C#N)c(-c3ccc(S(=O)(=O)N[C@@H](C)C(F)(F)F)cn3)n(C3CCC3)c2cc1Cl [compound 506, 6-(6-chloro-3-cyano-1-cyclobutyl-5-methyl-1H-indol-2-yl)-N-[(2S)-1,1,1-trifluoropropan-2-yl]pyridine-3-sulfonamide] | < 500 nM | 198 to 198.5 °C
20 | Cc1cc2c(cc1F)c(C#N)c(-c1ccc(S(=O)(=O)N[C@@H](C)C(F)(F)F)cn1)n2-c1cc(F)ccn1 [compound 926, 6-[3-cyano-5-fluoro-1-(4-fluoropyridin-2-yl)-6-methyl-1H-indol-2-yl]-N-[(2S)-1,1,1-trifluoropropan-2-yl]pyridine-3-sulfonamide] | < 500 nM | 229 to 233 °C
